{"source": "patent US20020015967A1", "about": "“FUNCTIONAL EXPRESSION OF ADENOSINE RECEPTORS IN YEAST” (priority 1998, published 2002)", "molecular_target": "T1, human A3 receptor (Homo sapiens, UniProt P0DMS8)", "T1 construct": "expressed in transfected cells", "T1 sequence (P0DMS8 1-318)": "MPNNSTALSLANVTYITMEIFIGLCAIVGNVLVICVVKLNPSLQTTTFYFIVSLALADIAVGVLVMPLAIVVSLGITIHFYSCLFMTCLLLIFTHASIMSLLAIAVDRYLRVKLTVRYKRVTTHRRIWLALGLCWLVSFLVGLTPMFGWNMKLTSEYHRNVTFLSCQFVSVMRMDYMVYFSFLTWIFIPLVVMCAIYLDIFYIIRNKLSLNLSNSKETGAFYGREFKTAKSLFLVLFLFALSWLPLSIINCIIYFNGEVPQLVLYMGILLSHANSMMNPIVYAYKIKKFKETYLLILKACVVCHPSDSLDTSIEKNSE", "experiment": "Radioligand displacement binding, [125I]AB-MECA, mammalian membranes", "conditions": "[125I]AB-MECA 0.75 nM; 10 ug mammalian membranes; 60 minutes room temperature; read-out: IC50 hA3R", "data": [{"smiles": "O=c1[nH]c(=O)c2nc3ccccc3nc2[nH]1", "note": "[Alloxozine]", "values": [{"measurement": "IC50", "result": 8.22, "unit": "µM"}]}]}
